Data: patent US7198906B2, “Drug sensitivity measuring method” (priority 2000, dated 2007)

Experiments:
[1] = system: E. coli sensitive strain JM109; test: Drug susceptibility measurement with dissolved oxygen electrode, sensitive strain; type: cell-based
From the text: (§1) In step SP1, measurement of currents (output signals) is started by applying predetermined voltages to electrodes for measuring dissolved oxygen concentration. The electrodes are provided within a first compartment or well, second compartment or well, and third compartment or well, respectively. The first compartment or well is a compartment or well containing only physiological salt solution. The second compartment or well is a compartment or well containing physiological salt solution and drug solution of a first predetermined concentration. The third compartment or well is a compartment or well containing physiological salt solution and drug solution of a second predetermined concentration. […] In step SP4, current from each electrode for measuring dissolved oxygen concentration is measured at a second time interval for a third time period (for example, at every 1 second for 60 seconds). In step SP5, each time is obtained based upon each of the measured currents at which the maximum current is obtained. […] In step SP7, drug susceptibility is detected based upon the variation condition of each current value during the fourth time period. […]
(§2) Next, the electrode for measuring the dissolved oxygen concentration is mounted to each compartment or well. […] After the measurement time of 360 seconds has passed, the measured currents are stored and the measured currents are analyzed. […]

[2] = system: E. coli resistant strain 5W (ABPC plasmid introduction); test: Drug susceptibility measurement with dissolved oxygen electrode, resistant strain; type: cell-based
From the text: as §1, §2

CC1(C)S[C@@H]2[C@H](NC(=O)[C@H](N)c3ccccc3)C(=O)N2[C@H]1C(=O)O [ABPC, Ampicillin]
variation characteristic of measured current (dissolved oxygen) following passage in time, curve versus control ([1]; JM109+ABPC, control JM109 as reference, FIGS. 2 and 3): more gentle than curves each corresponding to the control and the resistant strain
inclination of measured current for 10 seconds from the peak timing, supposing the inclination corresponding to the control to be 100% ([1]; sensitive strain JM109 + ABPC solution 5.3 μg/ml, entire amount 0.25 ml and 0.5 ml, control JM109 without drug = 100%): 79.0–85.4%
variation characteristic of measured current (dissolved oxygen) following passage in time, curve versus control ([2]; 5W+ABPC, control JM109 as reference, FIGS. 2 and 3): equal to or more steep than the curve corresponding to the control
inclination of measured current for 10 seconds from the peak timing, supposing the inclination corresponding to the control to be 100% ([2]; resistant strain 5W + ABPC solution 5.3 μg/ml, entire amount 0.25 ml and 0.5 ml, control JM109 without drug = 100%): 96.1–122.9%
